Source: patent US20100286076A1, “ECTOPARASITICIDAL METHODS AND FORMULATIONS” (priority 2009, published 2010)

Assays:
House Fly = test: Adult House Fly Assay (AhsF), feeding on compound-soaked dental wicks, 24 h mortality; parameters: species or system Musca domestica; details: adult house flies
Procedure: Adult Stable or House Fly Assay (ASF, AhsF). This assay is conducted essentially as described in White, W. H., S. M. Bauer, X. Zhao et al., Comparison of in vitro and in vivo ectoparasiticide activity of an experimental benzimidazole-carbamate with permethrin and amitraz, J. Med. Entomol. 42, 207-211 (2005); and White, W. H., C. M. McCoy, J. A. Meyer et al., Knockdown and mortality comparisons among spinosad-, imidacloprid-, and methomyl-containing baits against susceptible Musca domestica (Diptera: Muscidae) under laboratory conditions, J. Econ. Entomol. 100, 155-163 (2007).
Test material is formulated in DMSO at 10 mM. Doubling dilutions in like solvent are made to yield 10 testing levels. Materials are diluted in either bovine serum (stable flies) or 5% glucose solution (house flies) to obtain desired exposure concentrations from 200-0.39 μM. Approximately 3 ml of diluted test material is placed into a test tube (n=3 per test level) and a dental wick is used to absorb fluid. One dental wick is placed into a small weigh boat inside of a 100 mm Petri dish. Approximately 10 mixed-sex adult flies are anesthetized using carbon dioxide and counted into each dish. Dishes are incubated at 27° C. and 50-70% relative humidity. Flies recover from anesthesia and feed on compound-soaked dental wicks. After 24 h, live/dead flies are enumerated. Nonlinear regression is used to model dose-mortality relationship and obtain relative potency (LD50) data compared to contemporaneous controls (solvent-only or permethrin).

[1] = tested on: adult cat flea, Ctenocephalides felis; test: Oral administration per os to dogs, experimental adult cat flea infestation, comb counts; assay type: in vivo
Procedure: (§1) Oral administration per os to dogs. Given the above data, investigation into oral efficacy in dogs was begun. The investigation was conducted to evaluate 1) efficacy for a point dose of 30 mg/kg, against experimental, concurrent infestations with the adult cat flea, Ctenocephalides felis; adult stage American dog ticks, Dermacentor variabilis; and adult stage kennel ticks, Rhipicephalus sanguineus; 2) plasma concentrations of the 30 mg/kg treated dogs; and 3) efficacy for point dosages of either 50 mg/kg or 100 mg/kg, against experimental infestations with adult stage kennel ticks, R. sanguineus.
(§2) Sixteen dogs were selected for two groups of eight dogs (4 male: 4 female) per group. One treatment group received spinetoram, while the other group was left untreated. The dogs were housed individually in concrete-floored chain-link kennels both inside and outside. During the study period the dogs were fed a dry dog chow, except for the day of treatment (day 0) when they received wet canned food. The dogs had ad libitum access to water.
The first group on day 0 received one or more gelatin capsules containing spinetoram powder by mouth, in the amount of 30 mg/kg, while the untreated group received placebo. For the evaluation of the higher doses (50 and 100 mg/kg) for efficacy against R. sanguineus, dogs from the 30 mg/kg group were re-dosed at the higher levels approximately 2.5 months after the low dose administration, once the flea efficacy data had been collected.
Each dog was experimentally infested with about 100 adult fleas, and 50 ticks of each species on test days—1,5,12,19, 28, 35, and 42, with additional flea infestations conducted on days 49 and 56. Knockdown assessments against both ticks and fleas were conducted 24 hours after dosing. All subsequent counts were conducted 48 hours after infestation. For the higher doses, the dogs were infested with around 50 R. sanguineus ticks one day before re-dosing and again 5 days post re-dosing, with comb counts conducted approximately 24 hours thereafter. Knockdown activity (Day 1) was determined using 24 hr post-dosing comb counts. For all post-treatment residual tick counts, the comb count occurred 48 hours post infestation. Blood samples were drawn on days 14, 21, 28, and 35 to determine concentration of spinetoram in plasma.

[2] = tested on: adult stage kennel ticks, Rhipicephalus sanguineus; test: Oral administration per os to dogs, experimental kennel tick infestation; assay type: in vivo; details: at the doses tested (30, 50 or 100 mg/kg)
Procedure: as §1
as §2, with “water. […]” for “water.”
Each dog was experimentally infested with about 100 adult fleas, and 50 ticks of each species on test days—1,5,12,19, 28, 35, and 42, with additional flea infestations conducted on days 49 and 56. […] Knockdown activity (Day 1) was determined using 24 hr post-dosing comb counts. […]

Spinetoram
EC50 (House Fly; 24 h, 5% glucose solution, read-out: Potency (24 h EC50 μM)): 2.18 µM
Spinetoram/Spinosad Potency Ratio (House Fly; 24 h EC50): 5.5
geometric mean percent flea reduction, Day 7 ([1]; oral 30 mg/kg, Day 7): 100%
geometric mean percent flea reduction, Day 14 ([1]; oral 30 mg/kg, Day 14): 100%
geometric mean percent flea reduction, Day 21 ([1]; oral 30 mg/kg, Day 21): 99.5%
geometric mean percent flea reduction, Day 30 ([1]; oral 30 mg/kg, Day 30): 100%
geometric mean percent flea reduction, Day 37 ([1]; oral 30 mg/kg, Day 37): 98.9%
geometric mean percent flea reduction, Day 44 ([1]; oral 30 mg/kg, Day 44): 99.7%
geometric mean percent flea reduction, Day 51 ([1]; oral 30 mg/kg, Day 51): 98.2%
geometric mean percent flea reduction, Day 58 ([1]; oral 30 mg/kg, Day 58): 96.9%
geometric mean percent flea reduction, Knockdown ([1]; oral 30 mg/kg, Knockdown): 99.7%
residual control ([1]; oral point dose 30 mg/kg, extends beyond 8 weeks): > 97%
activity against ticks [2]: did not demonstrate statistically significant activity
